Data reported in publication PMC12211128, “Safety, tolerability, pharmacokinetic and pharmacodynamic effects of the muscarinic M1 positive allosteric modulator VU0467319 for Alzheimer’s disease: a single ascending-dose study in healthy participants” (Alzheimer's Research & Therapy, 2025).

Tested on: healthy participants
Assay: Spatial selective attention test (SSAT)
Assay type: in vivo, human
Details: for SSAT Alerting Cost / SSAT Reorienting Cost: mean (SD)
From the text: A version of the spatial selective attention test (SSAT; [33]) was used to assess the ability of participants to disengage attention and shift to a new target. Participants were asked to press a button corresponding to the side of the screen on which a stimulus appeared. The outcome variables of the task are the reaction time effects related to the ability of participants to anticipate a target when there is an ambiguous cue compared to there being no cue at all (Alerting effect: no cue– neutral cue); and the ability of participants to shift their attention between congruent and incongruent stimuli (Reorienting effect: invalid cue– valid cue).
Cognitive data: In this exploratory analysis, each outcome variable of the cognitive data was examined in a mixed model analysis of variance with one between-subjects factor of VU319 dose (0, 60, 120, 240, 400, 600 mg) and a within-subjects factor of testing session (pre-dose vs. post-dost administration). Post-hoc analysis compared each of the VU319 dose cohorts against the placebo group. Because the participants were healthy adults with normal cognitive function, we considered effects between no reductions in function to small improvement (d = 0.0–0.20) to be a positive result. For the food effect study, only the participants who received VU319 were examined due to the disproportionately small placebo group (n = 2). A within-subjects ANOVA including food condition (fasted/fed) and testing session (pre-dose vs. post-dose administration) was performed on each outcome variable.
A version of the spatial selective attention test (SSAT; (Posner, 1980)) was used to assess the ability of participants to disengage attention and shift to a new target. Participants were asked to press a button corresponding to the side of the screen on which a stimulus appeared. A central diamond was placed in between serving as a fixation point. Cues consisted of a 200-ms darkening of one side of the diamond depicting an arrowhead pointing to one of the peripheral boxes. The cue was followed by a target appearing for 100-ms in one of the boxes. To prevent temporal orienting, we used two randomly occurring cue–target intervals (400 and 700-ms). The targets were black diamonds that appeared in either the left or right boxes. In most trials, the cue validly predicted the target, however some cues were invalid, that is they pointed in the opposite direction of the target. On some trials, both sides of the diamond darkened, resulting in an ambiguous or neutral cue in which the participants were not able to prepare a specific hand to respond. […] The task consisted of 112 trials, with 64 trials (57%) with valid cues, and 16 trials (14.3%) each for the invalid, neutral or no cues conditions. The outcome variables of the task are the reaction time effects related to the ability of participants to anticipate a target when there is an ambiguous cue compared to there being no cue at all (Alerting effect: no cue – neutral cue); and the ability of participants to shift their attention between congruent and incongruent stimuli (Reorienting effect: invalid cue – valid cue).

[1] = Food effect study 120 mg, Fasting, Post-Drug
[2] = Food effect study 120 mg, Fasting, Pre-Drug
[3] = Food effect study 120 mg, Fed, Post-Drug
[4] = Food effect study 120 mg, Fed, Pre-Drug

SMILES: Cn1cc2c(-c3cc(F)c(CN4Cc5ncccc5C4=O)c(F)c3)cccc2n1 [VU319]
- SSAT Alerting Cost [1]: 25.8 (59.97) ms
- SSAT Reorienting Cost [1]: 49.55 (35.68) ms
- SSAT Alerting Cost [2]: 60.4 (53.4) ms
- SSAT Reorienting Cost [2]: 52.15 (24.83) ms
- SSAT Alerting Cost [3]: 113.15 (181.48) ms
- SSAT Reorienting Cost [3]: 49.45 (32.65) ms
- SSAT Alerting Cost [4]: 54.1 (45.3) ms
- SSAT Reorienting Cost [4]: 56.75 (38.19) ms
- SSAT Alerting Cost (SAD study, 60 mg, Post-Drug): 59.58 (43) ms
- SSAT Reorienting Cost (SAD study, 60 mg, Post-Drug): 55.25 (34.49) ms
- SSAT Alerting Cost (SAD study, 60 mg, Pre-Drug): 53.67 (39.48) ms
- SSAT Reorienting Cost (SAD study, 60 mg, Pre-Drug): 43.58 (31.92) ms
- SSAT Alerting Cost (SAD study, 120 mg, Post-Drug): 44.25 (22.86) ms
- SSAT Reorienting Cost (SAD study, 120 mg, Post-Drug): 20.33 (32.95) ms
- SSAT Alerting Cost (SAD study, 120 mg, Pre-Drug): 62.75 (45) ms
- SSAT Reorienting Cost (SAD study, 120 mg, Pre-Drug): 10.17 (18.88) ms
- SSAT Alerting Cost (SAD study, 240 mg, Post-Drug): 58.83 (38.04) ms
- SSAT Reorienting Cost (SAD study, 240 mg, Post-Drug): 39.67 (33.04) ms
- SSAT Alerting Cost (SAD study, 240 mg, Pre-Drug): 34.83 (27.3) ms
- SSAT Reorienting Cost (SAD study, 240 mg, Pre-Drug): 27.92 (29.28) ms
- SSAT Alerting Cost (SAD study, 400 mg, Post-Drug): 44.92 (26.61) ms
- SSAT Reorienting Cost (SAD study, 400 mg, Post-Drug): 31.25 (18.61) ms
- SSAT Alerting Cost (SAD study, 400 mg, Pre-Drug): 59.75 (24.51) ms
- SSAT Reorienting Cost (SAD study, 400 mg, Pre-Drug): 22.17 (25) ms
- SSAT Alerting Cost (SAD study, 600 mg, Post-Drug): 19.5 (41.26) ms
- SSAT Reorienting Cost (SAD study, 600 mg, Post-Drug): 31.33 (15.75) ms
- SSAT Alerting Cost (SAD study, 600 mg, Pre-Drug): 26.08 (37.44) ms
- SSAT Reorienting Cost (SAD study, 600 mg, Pre-Drug): 20.92 (11.57) ms
- SSAT reorienting effect, effect of dose (SAD study, both p > 0.3): no effect of dose, nor a dose by time interaction
- SSAT, effect of food condition or time (food effect study, 120 mg): no effect of either food condition or time
